In patent US20260226048A1, “MULTI-CYCLIC IRAK AND FLT3 INHIBITING COMPOUNDS AND USES THEREOF” (CHILDREN'S HOSPITAL MEDICAL CENTER, priority 2023, published 2026) one finds IC50 data, which are given here for 14 molecules.

One experiment has as its target T1, FLT3 (Homo sapiens, UniProt P36888).
T1 sequence (P36888 27-993): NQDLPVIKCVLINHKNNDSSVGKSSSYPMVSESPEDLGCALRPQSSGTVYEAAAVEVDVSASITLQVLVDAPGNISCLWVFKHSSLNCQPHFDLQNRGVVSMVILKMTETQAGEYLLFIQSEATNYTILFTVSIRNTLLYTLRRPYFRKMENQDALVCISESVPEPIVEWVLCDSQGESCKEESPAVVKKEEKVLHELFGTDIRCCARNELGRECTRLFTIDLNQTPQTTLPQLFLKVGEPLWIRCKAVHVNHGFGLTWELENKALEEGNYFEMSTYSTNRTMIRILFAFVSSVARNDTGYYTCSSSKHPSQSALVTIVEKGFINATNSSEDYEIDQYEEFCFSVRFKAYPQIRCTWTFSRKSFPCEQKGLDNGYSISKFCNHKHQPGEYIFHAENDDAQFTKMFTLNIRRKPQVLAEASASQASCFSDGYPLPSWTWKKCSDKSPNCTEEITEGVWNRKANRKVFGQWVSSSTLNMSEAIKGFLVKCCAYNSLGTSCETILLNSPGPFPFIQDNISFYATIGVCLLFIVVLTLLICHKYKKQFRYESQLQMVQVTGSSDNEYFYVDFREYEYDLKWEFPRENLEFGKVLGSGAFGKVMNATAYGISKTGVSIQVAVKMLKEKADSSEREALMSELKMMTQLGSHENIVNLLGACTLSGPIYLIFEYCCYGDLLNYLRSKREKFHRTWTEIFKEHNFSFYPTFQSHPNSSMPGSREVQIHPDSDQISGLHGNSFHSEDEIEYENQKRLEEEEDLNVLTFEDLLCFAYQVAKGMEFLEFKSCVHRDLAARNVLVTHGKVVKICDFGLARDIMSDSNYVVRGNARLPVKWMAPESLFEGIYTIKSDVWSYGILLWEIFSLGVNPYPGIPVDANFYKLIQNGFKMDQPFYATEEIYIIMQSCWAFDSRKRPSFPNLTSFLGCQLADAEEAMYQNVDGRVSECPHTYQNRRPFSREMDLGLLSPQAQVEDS
The experiment in a line: RBC HotSpot Kinase Assay, FLT3. Set-up: purchased Reaction Biology (RBC HotSpot). Format: biochemical. Particulars: isolated kinase enzyme, 33P-ATP, P81 filter-binding. In short, it runs like this: (§1)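 Radiometric HotSpot assay of catalytic activity with isolated recombinant kinase, possibly truncated or kinase domain only. Buffer: 20 mM Hepes pH 7.5, 10 mM MgCl2, 1 mM EGTA, 0.01% Brij35, 0.02 mg/ml BSA, 0.1 mM Na3VO4, 2 mM DTT, 1% DMSO, with cofactors specific to each kinase.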

Another experiment has as its system MOLM14 F691L cells. The experiment in a line: MOLM14 F691L cell viability assay (Cell Titer Glo). Format: cell-based. Conditions: Homo sapiens, MOLM-14; cell viability, Cell Titer Glo, 48 hours; read-out: MOLM14 F691L IC50. The method, boiled down:
(§2)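 MOLM14 cells with FLT3 D835Y or F691L kinase-domain resistance mutations seeded at 1000 cells/well and exposed to compound for 48 h under standard incubator conditions. Viability read by CellTiter-Glo luminescence after 15 min at room temperature.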
(ATP-based viability assays read luminescence as a measure of living cells.)

The target of another experiment is T2, IRAK4 (Homo sapiens, UniProt Q9NWZ3).
T2 sequence (Q9NWZ3 1-460): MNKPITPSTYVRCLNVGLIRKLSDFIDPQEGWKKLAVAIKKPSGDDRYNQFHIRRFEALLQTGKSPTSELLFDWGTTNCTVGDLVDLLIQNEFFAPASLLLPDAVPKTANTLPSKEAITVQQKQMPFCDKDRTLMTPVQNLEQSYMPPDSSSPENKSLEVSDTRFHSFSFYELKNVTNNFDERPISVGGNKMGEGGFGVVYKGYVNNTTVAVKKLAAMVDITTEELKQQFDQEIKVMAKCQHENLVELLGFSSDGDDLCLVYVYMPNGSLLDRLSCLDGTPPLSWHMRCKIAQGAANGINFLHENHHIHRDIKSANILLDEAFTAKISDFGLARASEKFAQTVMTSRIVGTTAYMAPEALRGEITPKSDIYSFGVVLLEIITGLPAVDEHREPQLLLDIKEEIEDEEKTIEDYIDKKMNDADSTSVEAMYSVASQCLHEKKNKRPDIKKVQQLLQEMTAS
As to the kind of experiment: RBC HotSpot Kinase Assay, IRAK4. Format: biochemical. Further details: purchased Reaction Biology (RBC HotSpot). Particulars: isolated kinase enzyme, 33P-ATP, P81 filter-binding. The method, boiled down: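 Radiometric filter-binding activity assay with isolated recombinant kinase (construct may be truncated or catalytic domain only) in 20 mM Hepes pH 7.5, 10 mM MgCl2, 1 mM EGTA, 2 mM DTT, 1% DMSO. Compound preincubated 20 min with kinase/substrate; reaction started with 33P-ATP, run 2 h at room temperature.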

The next experiment has as its target T3, IRAK1 (Homo sapiens, UniProt P51617).
T3 construct: purchased Reaction Biology (RBC HotSpot)
As to the kind of experiment: RBC HotSpot Kinase Assay, IRAK1. The experiment is classed as biochemical. Particulars: isolated kinase enzyme, 33P-ATP, P81 filter-binding. In short, it runs like this:
as §1

A further experiment concerns MOLM14 D835Y cells. As to the kind of experiment: MOLM14 D835Y cell viability assay (Cell Titer Glo). The experiment is classed as cell-based. Conditions: Homo sapiens, MOLM-14, 48 h, cell viability, Cell Titer Glo, 48 hours; read-out: MOLM14 D835Y IC50. In short, it runs like this: as §2

T3 sequence (P51617 whole entry): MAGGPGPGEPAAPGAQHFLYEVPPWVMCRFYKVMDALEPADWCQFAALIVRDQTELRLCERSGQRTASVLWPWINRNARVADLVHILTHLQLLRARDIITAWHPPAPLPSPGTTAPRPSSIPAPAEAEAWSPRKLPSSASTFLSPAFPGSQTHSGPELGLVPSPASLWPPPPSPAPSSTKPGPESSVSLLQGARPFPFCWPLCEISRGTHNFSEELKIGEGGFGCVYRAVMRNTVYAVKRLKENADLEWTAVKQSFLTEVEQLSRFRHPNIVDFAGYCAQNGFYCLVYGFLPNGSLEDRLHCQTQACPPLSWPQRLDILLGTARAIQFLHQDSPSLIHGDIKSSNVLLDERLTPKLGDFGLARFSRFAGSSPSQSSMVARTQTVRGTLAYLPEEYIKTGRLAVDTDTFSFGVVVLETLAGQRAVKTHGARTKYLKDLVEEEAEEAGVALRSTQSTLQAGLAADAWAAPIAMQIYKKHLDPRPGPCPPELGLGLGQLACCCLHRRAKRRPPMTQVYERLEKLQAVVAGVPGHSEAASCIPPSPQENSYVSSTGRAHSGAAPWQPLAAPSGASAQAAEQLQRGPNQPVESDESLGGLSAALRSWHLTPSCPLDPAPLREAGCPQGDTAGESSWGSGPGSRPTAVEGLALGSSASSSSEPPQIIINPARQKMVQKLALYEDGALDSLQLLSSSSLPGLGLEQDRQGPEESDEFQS

Usually IC50 stands for the concentration at which inhibition is half-maximal. On to `COc1cc2ncc(-c3nc(N[C@H]4CNC[C@@H]4F)ncc3F)n2nc1C1COC1` [Compound 93a, 5-fluoro-N-((3S,4S)-4-fluoropyrrolidin-3-yl)-4-(7-methoxy-6-(oxetan-3-yl)imidazo[1,2-b]pyridazin-3-yl)pyrimidin-2-amine], for which the IC50 is less than 0.5 nM at FLT3; 142 nM in the experiment on MOLM14 F691L cells; less than 0.5 nM on IRAK4; 5 nM at IRAK1; 13 nM in the experiment on MOLM14 D835Y cells.

Turning to `COc1cc2ncc(-c3ccnc(N[C@H]4CNC[C@@H]4F)n3)n2nc1C1COC1` [Compound 95a, N-((3S,4S)-4-fluoropyrrolidin-3-yl)-4-(7-methoxy-6-(oxetan-3-yl)imidazo[1,2-b]pyridazin-3-yl)pyrimidin-2-amine], the half-inhibitory concentration (IC50) amounted to 0.7 nM at FLT3; 2000 nM in the experiment on MOLM14 F691L cells; 6 nM on IRAK4; 300 nM on IRAK1; 113 nM in the experiment on MOLM14 D835Y cells.

Turning to `COc1cc2ncc(-c3ccnc(N[C@@H]4CCCNC4)n3)n2nc1C1COC1` [Compound 96a, (R)-4-(7-methoxy-6-(oxetan-3-yl)imidazo[1,2-b]pyridazin-3-yl)-N-(piperidin-3-yl)pyrimidin-2-amine], the IC50 at FLT3 came to 0.5 nM; in the experiment on MOLM14 F691L cells, 160 nM; on IRAK4, 62 nM; at IRAK1, 1790 nM; in the experiment on MOLM14 D835Y cells it was 16 nM.

On to `COc1cc2ncc(-c3ccnc(N[C@H]4CNCC[C@@H]4F)n3)n2nc1C1COC1` [Compound 97a, N-((3S,4S)-4-fluoropiperidin-3-yl)-4-(7-methoxy-6-(oxetan-3-yl)imidazo[1,2-b]pyridazin-3-yl)pyrimidin-2-amine], for which the half-maximal inhibitory concentration (IC50) at FLT3 was found to be 0.7 nM; with MOLM14 F691L cells, 318 nM; on IRAK4 it was 4 nM; on IRAK1 it was 361 nM; in the experiment on MOLM14 D835Y cells, 32 nM.

For the molecule `CC(C)(O)c1cn2c(-c3nc(N[C@H]4CNC[C@@H]4F)ncc3F)cnc2cn1` [Compound 98a, 2-(3-(5-fluoro-2-(((3S,4S)-4-fluoropyrrolidin-3-yl)amino)pyrimidin-4-yl)imidazo[1,2-a]pyrazin-6-yl)propan-2-ol], the IC50 was 1 nM on FLT3; 2520 nM with MOLM14 F691L cells; 2 nM at IRAK4; 46 nM at IRAK1; 113 nM in the experiment with MOLM14 D835Y cells.

For `CC(C)(O)c1cn2c(-c3nc(N[C@@H]4CCCNC4)ncc3F)cnc2cn1` [Compound 99a, (R)-2-(3-(5-fluoro-2-(piperidin-3-ylamino)pyrimidin-4-yl)imidazo[1,2-a]pyrazin-6-yl)propan-2-ol], the half-inhibitory concentration (IC50) came out at 3 nM at FLT3; 1420 nM in the experiment on MOLM14 F691L cells; 11 nM at IRAK4; 44 nM on IRAK1; 142 nM in the experiment on MOLM14 D835Y cells.

Regarding `COc1cc2ncc(-c3nc(N[C@H]4CNC[C@@H]4F)ncc3Cl)n2nc1C1CC1` [Compound 101a, 5-chloro-4-(6-cyclopropyl-7-methoxyimidazo[1,2-b]pyridazin-3-yl)-N-((3S,4S)-4-fluoropyrrolidin-3-yl)pyrimidin-2-amine], the IC50 at FLT3 was 0.8 nM; with MOLM14 F691L cells it was 711 nM; at IRAK4 it was 1 nM; at IRAK1, 24 nM; in the experiment on MOLM14 D835Y cells, 113 nM.

For `COc1cc2ncc(-c3nc(N[C@@H]4CCCNC4)ncc3Cl)n2nc1C1CC1` [Compound 102a, (R)-5-chloro-4-(6-cyclopropyl-7-methoxyimidazo[1,2-b]pyridazin-3-yl)-N-(piperidin-3-yl)pyrimidin-2-amine], the IC50 on FLT3 was less than 0.5 nM; in the experiment with MOLM14 F691L cells, 71 nM; at IRAK4 it was 2 nM; at IRAK1, 81 nM; in the experiment with MOLM14 D835Y cells, 23 nM.

As to `COc1cc2ncc(-c3nc(N[C@H]4CNCC[C@@H]4F)ncc3Cl)n2nc1C1CC1` [Compound 103a, 5-chloro-4-(6-cyclopropyl-7-methoxyimidazo[1,2-b]pyridazin-3-yl)-N-((3S,4S)-4-fluoropiperidin-3-yl)pyrimidin-2-amine], the IC50 at FLT3 came to 0.7 nM; in the experiment on MOLM14 F691L cells it was 201 nM; on IRAK4, 3 nM; at IRAK1, 179 nM; with MOLM14 D835Y cells, 71 nM.

For the molecule `COc1cnc(N[C@@H]2CCCNC2)nc1-c1cnc2cc(OC)c(C3CC3)nn12` [Compound 105a, (R)-4-(6-cyclopropyl-7-methoxyimidazo[1,2-b]pyridazin-3-yl)-5-methoxy-N-(piperidin-3-yl)pyrimidin-2-amine], the IC50 on FLT3 is 33 nM; in the experiment with MOLM14 F691L cells, 6340 nM; on IRAK4 it was 259 nM; at IRAK1, greater than 10000 nM; in the experiment on MOLM14 D835Y cells it was 711 nM.

For the molecule `COc1cc2ncc(-c3nc(N[C@H]4CNC[C@@H]4F)ncc3F)n2nc1N1CCCC1=O` [Compound 107a, 1-(3-(5-fluoro-2-(((3S,4S)-4-fluoropyrrolidin-3-yl)amino)pyrimidin-4-yl)-7-methoxyimidazo[1,2-b]pyridazin-6-yl)pyrrolidin-2-one], the IC50 on FLT3 turned out to be 0.6 nM; in the experiment on MOLM14 F691L cells, 1130 nM; on IRAK4, 20 nM; at IRAK1 it was 102 nM; with MOLM14 D835Y cells, 80 nM.

As to `COc1cc2ncc(-c3nc(N[C@H]4CNCC[C@@H]4F)ncc3F)n2nc1N1CCCC1=O` [Compound 108a, 1-(3-(5-fluoro-2-(((3S,4S)-4-fluoropiperidin-3-yl)amino)pyrimidin-4-yl)-7-methoxyimidazo[1,2-b]pyridazin-6-yl)pyrrolidin-2-one], the IC50 on FLT3 was found to be 2 nM; with MOLM14 F691L cells, 798 nM; at IRAK4 it was 57 nM; on IRAK1 it was 241 nM; with MOLM14 D835Y cells it was 80 nM.

Regarding `COc1cc2ncc(-c3ccnc(N[C@H]4CNCC[C@@H]4F)n3)n2nc1C1CCO1` (stereo partly drawn) [Compound 109a, N-((3S,4S)-4-fluoropiperidin-3-yl)-4-(7-methoxy-6-(oxetan-2-yl)imidazo[1,2-b]pyridazin-3-yl)pyrimidin-2-amine], the IC50 on FLT3 is 1 nM; in the experiment with MOLM14 F691L cells it was 318 nM; at IRAK4 it was 4 nM; on IRAK1 it was 239 nM; with MOLM14 D835Y cells it was 28 nM.

`COc1cc2ncc(-c3nc(N[C@@H]4CCCNC4)ncc3F)n2nc1N1CCCS1(=O)=O` [Compound 110a, (R)-2-(3-(5-fluoro-2-(piperidin-3-ylamino)pyrimidin-4-yl)-7-methoxyimidazo[1,2-b]pyridazin-6-yl)isothiazolidine 1,1-dioxide]: the IC50 at FLT3 was less than 0.5 nM; in the experiment with MOLM14 F691L cells, 113 nM; at IRAK4, 20 nM; on IRAK1, 23 nM; with MOLM14 D835Y cells, 18 nM.
